According to PubChem BioAssay AID256 (DTP/NCI, 2004):
Where “and” joins values, the source holds several entries; their conditions need not be identical. Equal values may be shown once. Toxic doses and inconclusive results are not listed. How the source made its calls: active means survival T/C of 150% or more; inactive means T/C below 125% in these data.

System: CD2F1 mice, L1210 leukemia ip, survival T/C
Experiment: NCI In Vivo Anticancer Drug Screen. Data for tumor model L1210 Leukemia (intraperitoneal) in CD2F1 (CDF1) mice
Conditions: higher = longer survival
Summary of the method: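 Antitumor effect is scored in animals hosting a serially transplanted tumor. Values compare compound-dosed animals against vehicle-only controls as a simple quotient.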

[1] = endpoint: mean survival time, dose: 100.0 mg/kg/injection, schedule: Q01DX009 (ip), vehicle: saline
[2] = endpoint: mean survival time, dose: 200.0 mg/kg/injection, schedule: Q01DX009 (ip), vehicle: saline
[3] = endpoint: mean survival time, dose: 100.0 mg/kg/injection, schedule: Q01DX001 (ip), vehicle: saline
[4] = endpoint: mean survival time, dose: 200.0 mg/kg/injection, schedule: Q01DX001 (ip), vehicle: saline
[5] = endpoint: mean survival time, dose: 400.0 mg/kg/injection, schedule: Q01DX001 (ip), vehicle: saline
[6] = endpoint: mean survival time, dose: 100.0 mg/kg/injection, schedule: Q04DX003 (ip), vehicle: saline with Tween-80
[7] = endpoint: mean survival time, dose: 200.0 mg/kg/injection, schedule: Q04DX003 (ip), vehicle: saline with Tween-80
[8] = endpoint: mean survival time, dose: 400.0 mg/kg/injection, schedule: Q04DX003 (ip), vehicle: saline with Tween-80

Measured: T/C

C1CCC(C2CCCC[N-]2)[N-]C1.CC(C)CC([NH-])C(=O)O.[Cl][Pt] (stereo not given)
inactive: endpoint: median survival time, dose: 10.0 mg/kg/injection, schedule: Q04DX003 (ip), vehicle: saline 96 % of control | endpoint: median survival time, dose: 20.0 mg/kg/injection, schedule: Q04DX003 (ip), vehicle: saline 100 % of control | endpoint: median survival time, dose: 40.0 mg/kg/injection, schedule: Q04DX003 (ip), vehicle: saline 97 % of control | endpoint: median survival time, dose: 80.0 mg/kg/injection, schedule: Q04DX003 (ip), vehicle: saline 101 % of control and 104 % of control | endpoint: median survival time, dose: 160.0 mg/kg/injection, schedule: Q04DX003 (ip), vehicle: saline 104 % of control | endpoint: median survival time, dose: 320.0 mg/kg/injection, schedule: Q04DX003 (ip), vehicle: saline 93 % of control

CCOC(=O)C1CN(Cc2ccccc2)CCC1=O (stereo not given)
inactive: [1] 100 % of control | [2] 103 % of control

CN(C)CCSCC(=O)N1c2ccccc2Sc2ccccc21
inactive: endpoint: mean survival time, dose: 100.0 mg/kg/injection, schedule: Q04DX003 (ip), vehicle: saline 96 % of control

CCCCCCCCCCC(CCCCCCCCCC)C1CC(C)CCC1C (stereo not given)
inactive: [3] 94 % of control | [4] 97 % of control | [5] 97 % of control

Nc1ccn(C2OC(CO)C(O)C2Br)c(=O)n1 (stereo not given)
inactive: endpoint: median survival time, dose: 12.5 mg/kg/injection, schedule: Q01DX005 (ip), vehicle: saline 108 % of control | endpoint: median survival time, dose: 25.0 mg/kg/injection, schedule: Q01DX005 (ip), vehicle: saline 107 % of control | endpoint: median survival time, dose: 50.0 mg/kg/injection, schedule: Q01DX005 (ip), vehicle: Klucel (hydroxypropylcellulose) (HPC) 118 % of control | endpoint: median survival time, dose: 50.0 mg/kg/injection, schedule: Q01DX005 (ip), vehicle: saline 119 % of control
active: endpoint: median survival time, dose: 200.0 mg/kg/injection, schedule: Q01DX005 (ip), vehicle: saline 150 % of control

NC(=S)OCCCCCn1cnc2c(=S)nc[nH]c21
inactive: endpoint: mean survival time, dose: 100.0 mg/kg/injection, schedule: Q01DX001 (ip), vehicle: saline with Tween-80 95 % of control | endpoint: mean survival time, dose: 200.0 mg/kg/injection, schedule: Q01DX001 (ip), vehicle: saline with Tween-80 97 % of control | endpoint: mean survival time, dose: 400.0 mg/kg/injection, schedule: Q01DX001 (ip), vehicle: saline with Tween-80 105 % of control

O=C(CO)C(O)C(O)C(O)C(O)CO (stereo not given)
inactive: [3] 100 % of control and 105 % of control | [4] 102 % of control and 94 % of control | [5] 96 % of control

COC1OC(COC(=O)c2ccc([N+](=O)[O-])cc2)C(SC#N)C1O (stereo not given)
inactive: endpoint: mean survival time, dose: 150.0 mg/kg/injection, schedule: Q01DX001 (ip), vehicle: saline 93 % of control

CSc1cc(C)c(O)c(CO)c1
inactive: endpoint: mean survival time, dose: 100.0 mg/kg/injection, schedule: Q04DX003 (ip), vehicle: other 104 % of control | endpoint: mean survival time, dose: 200.0 mg/kg/injection, schedule: Q04DX003 (ip), vehicle: other 98 % of control | endpoint: mean survival time, dose: 400.0 mg/kg/injection, schedule: Q04DX003 (ip), vehicle: other 100 % of control

Cc1ccc(S(=O)(=O)Nc2ccccc2-c2nc3cc(Cl)ccc3c(=O)o2)cc1
inactive: [6] 87 % of control | [7] 98 % of control | [8] 98 % of control

COC(=O)C(Cl)(Cl)N=Nc1c(Cl)cc(Cl)c(C)c1Cl
inactive: endpoint: mean survival time, dose: 6.25 mg/kg/injection, schedule: Q01DX009 (ip), vehicle: saline with Tween-80 96 % of control | endpoint: mean survival time, dose: 6.25 mg/kg/injection, schedule: Q01DX009 (ip), vehicle: saline 93 % of control | endpoint: mean survival time, dose: 12.5 mg/kg/injection, schedule: Q01DX009 (ip), vehicle: saline with Tween-80 100 % of control | endpoint: mean survival time, dose: 12.5 mg/kg/injection, schedule: Q01DX009 (ip), vehicle: saline 98 % of control | endpoint: mean survival time, dose: 25.0 mg/kg/injection, schedule: Q01DX009 (ip), vehicle: saline with Tween-80 97 % of control | endpoint: mean survival time, dose: 25.0 mg/kg/injection, schedule: Q01DX009 (ip), vehicle: saline 93 % of control | endpoint: mean survival time, dose: 50.0 mg/kg/injection, schedule: Q01DX009 (ip), vehicle: saline with Tween-80 94 % of control | endpoint: mean survival time, dose: 50.0 mg/kg/injection, schedule: Q01DX009 (ip), vehicle: saline 98 % of control | endpoint: mean survival time, dose: 100.0 mg/kg/injection, schedule: Q01DX009 (ip), vehicle: saline with Tween-80 102 % of control | [1] 90 % of control | endpoint: mean survival time, dose: 200.0 mg/kg/injection, schedule: Q01DX009 (ip), vehicle: saline with Tween-80 86 % of control | [2] 86 % of control

O=C(c1ccccc1)C(Br)C(Br)c1ccc([N+](=O)[O-])cc1 (stereo not given)
inactive: endpoint: mean survival time, dose: 100.0 mg/kg/injection, schedule: Q04DX002 (ip), vehicle: saline with Tween-80 89 % of control | endpoint: mean survival time, dose: 200.0 mg/kg/injection, schedule: Q04DX002 (ip), vehicle: saline with Tween-80 101 % of control | endpoint: mean survival time, dose: 400.0 mg/kg/injection, schedule: Q04DX002 (ip), vehicle: saline with Tween-80 101 % of control

CC[P+]1(c2ccccc2)CCCc2ccc3ccccc3c21 (stereo not given)
inactive: endpoint: mean survival time, dose: 12.5 mg/kg/injection, schedule: Q04DX003 (ip), vehicle: saline 117 % of control | endpoint: mean survival time, dose: 25.0 mg/kg/injection, schedule: Q04DX003 (ip), vehicle: saline 110 % of control

COC(=O)CCC(=O)NCCc1c[nH]c2ccccc12
inactive: [6] 98 % of control | [7] 93 % of control | [8] 98 % of control
